{"source": "paper PMC5951806", "about": "“Rapid labelling and covalent inhibition of intracellular native proteins using ligand-directed N-acyl-N-alkyl sulfonamide” (Nature Communications, 2018)", "key": {"[1]": {"tested_on": "Hsp90", "details": "read-out: reported IC50; cited from earlier work"}, "[2]": {"tested_on": "SKBR3 cells", "assay": "Cell viability assay (WST-8)", "details": "for cytotoxicity / growth inhibitory effect after washout: SKBR3, 3 h treatment, washing, further 69 h"}, "[3]": {"tested_on": "Hsp90-client proteins HER2, cRaf, Akt and pAkt", "assay": "Western blotting of Hsp90 client proteins", "details": "for Hsp90-client protein levels after washout: SKBR3, 3 h treatment, washing, further 21 h"}, "[4]": {"tested_on": "intracellular Hsp90", "details": "SKBR3 cells, pre-treated 1–10 µM for 3 h, washed, then 11 0.5 µM"}, "[5]": {"target": "N-terminal ATP binding domain of Hsp90α (Homo sapiens, UniProt P07900)"}, "[6]": {"target": "N-terminal domain of Hsp90α (Homo sapiens, UniProt P07900)", "assay": "In vitro labelling of N-terminal domain of Hsp90α (MALDI-TOF MS)", "details": "6.4 µM protein, 10 µM 12, 37 °C; at Lys 58"}}}
{"smiles": "CC(C)NCCCn1c(Sc2cc3c(cc2I)OCO3)nc2c(N)ncnc21", "note": "[PU-H71]", "values": [{"measurement": "IC50", "setting": "[1]", "value": "[…]"}, {"measurement": "cytotoxicity / growth inhibitory effect after washout", "setting": "[2]", "value": "almost abolished the cytotoxicity"}, {"measurement": "cytotoxicity", "setting": "[2]; SKBR3, long-term incubation for 72 h", "value": "remarkable cytotoxicity"}, {"measurement": "western blotting bands of Hsp90-client proteins relative to vehicle", "setting": "[3]; SKBR3, 1 μM, 24 h without washing", "value": "dramatically decreased"}, {"measurement": "Hsp90-client protein levels after washout", "setting": "[3]", "value": "did not significantly affect the band intensities"}, {"measurement": "blocking of fluorescent labelling of Hsp90 by 11 after washout", "setting": "[4]", "value": "failed to block the labelling reaction"}]}
{"smiles": "N#CCN(C(=O)CCCC(=O)NCCCn1c(Sc2cc3c(cc2I)OCO3)nc2c(N)ncnc21)S(=O)(=O)c1ccccc1", "note": "[compound 12]", "values": [{"measurement": "cytotoxicity / growth inhibitory effect after washout", "setting": "[2]", "value": "clearly showed a growth inhibitory effect"}, {"measurement": "Hsp90-client protein levels after washout", "setting": "[3]", "value": "decrease in Hsp90-client proteins was also observed"}, {"measurement": "Ki", "setting": "[5]", "value": 62, "unit": "nM"}, {"measurement": "kinact/KI", "setting": "[5]; pH 7.2, read-out: second-order rate constant of the covalent inhibition", "value": 29000, "unit": "M⁻¹ s⁻¹"}, {"measurement": "covalent attachment of the PU-H71 ligand to Hsp90 N-terminal domain", "setting": "[6]", "value": "quantitative and single covalent attachment"}, {"measurement": "blocking of fluorescent labelling of Hsp90 by 11 after washout", "setting": "[4]", "value": "strongly inhibited the fluorescent labelling"}]}
